Assay results from US6730665B1, “Treatment of bone cancer” (Mayo Foundation for Medical Education and Research, priority 1999, dated 2004).
Entries after “also recorded” stand apart in the source; their conditions may differ.

Columns and labels:
[1] = system: female Fisher 344 rats; assay: Cortical bone histomorphometry of rat tibia after oral 2ME; assay type: in vivo; conditions: 100 mg/kg/day oral gavage 13 days, mean ± SE
Procedure: All studies were approved by the Institutional Animal Care and Use Committee of the Mayo Clinic, Rochester, Minn. Rats were kept in plastic cages (3 per cage) under standard conditions of a 12 hr dark and 12 hr light cycle with food (Purina Laboratory rodent diet 5001, Ralston-Purina, St. Louis, Mo.) and water ad libitum. Rooms were maintained at a temperature of 24° C.
Fluorochromes were given […] tail vein.
Bone histomorphometry Histomorphometric measurements were performed with the OsteoMeasure Analysis System (OsteoMetrics, Atlanta, Ga.), which consisted of a Pentium 1133 computer coupled to a photomicroscope and image analysis system. […] The region of interest was traced, and the line lengths and area bounded by lines were calculated automatically.
Cortical bone measurements Ground transverse sections, cut at a site just proximal to the tibia-fibula synostosis, were prepared for histomorphometric analysis of cortical bone as described by Merriam, G. R. et al., Steroids, 1980, 136: 1-11. The following values were obtained as described by Turner, R. T. et al., Endocrinology, 1998, 139:3712-3720: 1) cross-sectional bone area; 2) medullary area: 3) cortical bone area: 4) periosteal perimeter; 5) endocortical perimeter; 6) periosteal bone formation rate, calculated as the area of bone between the declomycin label given at the start of the experiment and periosteal perimeter divided by the post-labeling period of 11 days; 7) periosteal mineral apposition rate, an index of osteoblast activity which is calculated as the periosteal bone formation rate divided by the label perimeter; and 8) periosteal label perimeter, an index of osteoblast number, defined as the periosteal perimeter labeled with calcein.
Statistical Analvses All values are expressed as mean±standard error (SE). Significant differences between groups were determined by Fisher's Protected Least Significant Difference post hoc test for multiple group comparisons following detection of significance by 1-way ANOVA. Significance was considered at p values ≦0.05.

[2] = Serum cholesterol in 2ME treated rats; assay type: in vivo, rat; conditions: 100 mg/kg/day oral gavage 13 days
[3] = system: osteosarcoma cells and immortalized cell lines; assay: Cell survival, summary statement; assay type: cell-based
Procedure: MG63 and TE85 human osteosarcoma cells, and ROS 17/2.8 rat osteosarcoma cells were grown in DMEM/F12 phenol-red free medium containing 10% charcoal-stripped fetal bovine serum (FBS) and supplemented with 100 units/ml penicillin, 100 μg/ml streptomycin. Cell were incubated at 37° C. under 5% CO2 in air. Cells were plated at 5×10^4 cells per well into 24 well plates containing 1 ml of medium per well. After allowing the cells to attach overnight, media in the wells were replaced with fresh 1 ml medium. Human fetal osteoblasts (hFOB) cells and hFOB cells overexpressing estrogen receptor-alpha (hFOB-ERα) and estrogen receptor-beta (hFOB-ERβ) were grown in DMEM/F12 medium containing FBS, penicillin, streptomycin and Geneticin (300 μg/mL). The laboratory of Dr. B. L. Riggs at Mayo Clinic provided primary human osteoblast (HOB) cells. HOB cells were basically established from cancellous bone obtained as waste from orthopedic procedures and cultured as explants to generate the osteoblast-like monolayers as described by Borke et al., J. Clin. Endocrinol. Metab., 1988, 67:1299-1304. Human FOB cells and hFOB cells stably transfected with estrogen receptors (ERs) were maintained at 34° C., while all other cells were incubated at 37° C. under 5% CO2 in air.
Estrogen metabolites were diluted 1000 fold to give the final required concentrations in each well, and maintained for 72 hrs. The metabolites 2ME, 2OHE, and E2 were purchased from Sigma Chemical Company (St. Louis, Mo.). Stock solutions for each metabolite were made in 95% ethanol. Cell growth was measured by taking the viable cell count. At the end of metabolite treatment, cells were harvested, stained with trypan blue, and counted under a light microscope.

[4] = system: female Fisher 344 rats; assay: Growth plate histomorphometry and longitudinal bone growth rate in rats; assay type: in vivo, rat; conditions: 100 mg/kg/day oral gavage 13 days
Procedure: Twenty-five female 3-month-old Fisher 344 rats, weighing approximately 141-160 g, were purchased from Harlan Sprague Dawley (Madison, Wis.). The rats were divided into 3 groups (8 or 9 rats/group) of a baseline group that was sacrificed on the first day of treatment, a control group that was treated with carrier (liposomes) only, and a 2ME treatment group. […] Fluorochromes were given juxta tail vein. Declomycin (20 mg/kg) was given on the first day of treatment and calcein (15 mg/kg) two days prior to sacrifice, in order to label mineralizing bone and cartilage. Twenty-four hours after the last dosage, rats were anesthetized with ketamine HCl (100 mg/kg):xylaxine HCl (10 mg/kg) and sacrificed by decapitation. […] Tibiae were quickly excised and fixed for histomorphometry in a solution of 70% ethanol.
Growth Plate Measurements The longitudinal bone growth rate was measured at 5 equally spaced sites across the growth plate as the distance between the declomycin and calcein labels that had been deposited into the mineralizing front of the hypertrophic zone of the growth plate divided by the 11 day interval between application of the sequential fluorochromes.
Growth plate thickness was measured as the mean distance between the zone of vascular invasion and the resting zone. Thicknesses of the proliferative zone and hypertrophic zone were also measured.

[5] = system: MG63 cells; assay: Bone matrix protein mRNA levels by northern blot; assay type: cell-based, human; conditions: 10 μM
Procedure: Time course effects of 2ME on steady-state mRNA levels for bone matrix proteins were determined. MG63 cells in triplicate cultures were treated with 10 μM 2ME. Cells were harvested at the end of 0, 12, 24 and 72 h of treatment and used for RNA isolation. Total RNA isolated from cells was analyzed by northern blot hybridization. Ten μg of RNA sample were denatured by incubation at 52° C. in a solution of 1M glyoxal, 50% dimethyl sulfoxide, and 0.01 M NaH2PO4, and then separated in a 1% agarose gel. RNA separated in agarose gels was transferred to an Amersham Hybond nylon membrane overnight via capillary action in 20× standard saline citrate (SSC) (1×SSC=0.15 M NaCl and 0.015 M sodium citrate, pH 7.0), sodium citrate buffer. The amounts of RNA loaded and transferred were assessed by methylene blue staining of the membranes and hybridization with a [^32P]-labeled cDNA for 18S ribosomal RNA. Membranes were prehybridized for 2 h at 65° C. in buffer containing 50% deionized formamide, 10% dextran sulfate, 5×SSC, 100 μg/ml of heat-denatured single-strand salmon sperm DNA, and 2× Denhardts solution. Hybridization was conducted for 80 min in a buffer containing the above ingredients in addition to a minimum of 10^6 cpm per mL [^32P]-labeled cDNA probe. Labeled type I collagen and osteonectin cDNA were used for probing the blots. The cDNA probes were labeled by random sequence hexanucleotide primer extension using the Megaprime DNA labeling kit from Amersham (Arlington Heights, Ill.). The membranes were washed for 30 min at 45° C. in 2×SSC and for 15 to 60 min in 0.1×SSC at 45° C. The resulting radioactive mRNA bands on the blots were quantitated by Phosphorimager (Molecular Dynamics, Sunnyvale, Calif.).

Which results are given for `COc1cc2c(cc1O)CC[C@@H]1[C@@H]2CC[C@]2(C)[C@@H](O)CC[C@@H]12` [2ME, 2-methoxyestradiol]?
Bone Formation Rate ([1]; cortical (periosteal) bone): 5.32 ± 0.47 mm^2 × 10^−3/day; Mineral Apposition Rate ([1]; cortical (periosteal) bone): 1.34 ± 0.06 μm/day; Cortical Area ([1]; cortical bone, tibia): 2.28 ± 0.03; Cross-sectional area ([1]; cortical bone, tibia): 2.98 ± 0.04 mm^2; Medullary Area ([1]; cortical bone, tibia): 0.70 ± 0.02 mm^2; effect on serum cholesterol (in words) [2]: decreased; also recorded: highly significant decreases; reduction of cell survival ([3]; 2 μM, continuous treatment, 72 hours): 85%; reduction of cell survival ([3]; 20 μM): 95%; Proliferative zone thickness ([4]; mean ± SE, control 42 ± 5): 11 ± 3 μm; Hypertrophic zone thickness ([4]; mean ± SE, control 46 ± 6): 6 ± 2 μm; Growth plate thickness ([4]; mean ± SE, control 153 ± 14): 70±6 μm; effect on longitudinal bone growth (in words) ([4]; proximal tibia, 100 mg/kg/day): decreased; also recorded: highly significant decreases; longitudinal bone growth rate ([4]; proximal tibia, control 55±2): 20±2 μm/day; decrease in osteonectin mRNA level ([5]; 12 h): 50%; decrease in type 1 collagen mRNA level ([5]; 12 h): 26%; decrease in osteonectin mRNA level ([5]; 24 h): 38%; decrease in type 1 collagen mRNA level ([5]; 24 h): 37%; mRNA levels for the bone matrix proteins (in words) ([5]; 72 h): returned to normal levels
